Data published in patent US11439148B2, “Pyrimidine derivatives” (SYNGENTA PARTICIPATIONS AG, priority 2017, dated 2022).
Values joined by “and” are separate entries in the source; they are usually repeats but may differ in a detail not shown here. Identical values can stand only once.

Assays:
Assay type in all cases: in vivo
[1] = test system: Abutilon theophrasti (ABUTH); assay: Adjuvant efficacy with nicosulfuron, glasshouse spray test; settings: nicosulfuron WG, mean over 15 and 60 g/ha and 3 replicates; adjuvant 0.2% v/v (none in No Adjuvant rows); % leaf area killed, 21 days after application; Tests 1-4 separate runs
Experimental: (§1) The efficacy of adjuvants 1-12 as adjuvants for the herbicide nicosulfuron were tested in a glasshouse against four weed species sown into standard soil in pots and cultivated under controlled conditions in a glasshouse (at 24/18° C. day/night; 16 hours light; 65% humidity). Nicosulfuron was added to the spray tank as a standard WG (water dispersible granule) formulation.
(§2) The spray tests were also carried out using nicosulfuron in conjunction with adjuvants 1-12. The adjuvant was added to the spray solution at a rate of 0.2% v/v. All spray solutions also contained 12.5% v/v of iso-Propanol. The weed species and their BBCH growth stage at spraying were Abutilon theophrasti (ABUTH; growth stage 13), Chenopodium album (CHEAL; growth stage 13-14), Digitaria sanguinalis (DIGSA; growth stage 11), and Setaria viridis (SETVI; growth stage 13). Each spray test was replicated three times. The test plants were then grown in a glasshouse under controlled conditions (at 24/18° C. day/night; 16 hours light; 65% humidity) and watered twice a day. The efficacy of the herbicide was assessed visually and expressed as a percentage of the leaf area killed. Samples were assessed at a time period of 21 days following application. The results shown in Table 1 below are mean averages over the two rates of nicosulfuron, and the three replicates.

[2] = test system: Chenopodium album (CHEAL); assay: as above; settings: nicosulfuron WG, mean over 15 and 60 g/ha and 3 replicates; adjuvant 0.2% v/v (none in No Adjuvant rows); % leaf area killed, 21 days after application; Tests 1-4 separate runs
Experimental: as §1, §2

[3] = test system: Digitaria sanguinalis (DIGSA); assay: as above; settings: nicosulfuron WG, mean over 15 and 60 g/ha and 3 replicates; adjuvant 0.2% v/v (none in No Adjuvant rows); % leaf area killed, 21 days after application; Tests 1-4 separate runs
Experimental: as §1, §2

[4] = test system: Setaria viridis (SETVI); assay: as above; settings: nicosulfuron WG, mean over 15 and 60 g/ha and 3 replicates; adjuvant 0.2% v/v (none in No Adjuvant rows); % leaf area killed, 21 days after application; Tests 1-4 separate runs
Experimental: as §1, §2

[5] = test system: four weed species (ABUTH, CHEAL, DIGSA, SETVI); assay: Adjuvant efficacy with nicosulfuron, glasshouse spray test, average over all species; settings: nicosulfuron WG, mean over 15 and 60 g/ha, adjuvant 0.2% v/v (none in No Adjuvant rows), 21 days, average of ABUTH
Experimental: as §1, §2

[6] = test system: Abutilon theophrasti (ABUTH); assay: Adjuvant efficacy with fomesafen, glasshouse spray test; settings: fomesafen sodium salt SL, mean over 100 and 200 g/ha and 3 replicates; adjuvant 0.2% v/v (none in No Adjuvant rows); % leaf area killed, 21 days after application; Tests 1-4 separate runs
Experimental: as §1, with “fomesafen (as the sodium salt)” for “nicosulfuron”, “species,” for “species”, “light,” for “light;”, “Fomesafen sodium salt” for “Nicosulfuron”, “SL (soluble concentrate)” for “WG (water dispersible granule)”
(§3) The spray tests were also carried out using fomesafen in conjunction with adjuvants 1-12. Unless otherwise stated, the adjuvants were added to the spray solution at a rate of 0.2% v/v. All spray solutions also contained 12.5% v/v of iso-Propanol to normalise the retention of the sprays on the hydrophobic plant surfaces. The weed species and their BBCH growth stage at spraying were Abutilon theophrasti (ABUTH; growth stage 12-13), Chenopodium album (CHEAL; growth stage 15), Ipomea hederacea (IPOHE; growth stage 12), and Setaria viridis (SETVI; growth stage 14). Each spray test was replicated three times. The test plants were then grown in a glasshouse under controlled conditions (at 24/18° C. day/night; 16 hours light; 65% humidity) and watered twice a day.
(§4) The efficacy of the herbicide was assessed visually and expressed as a percentage of the leaf area killed. Samples were assessed at a time period of 21 days following application. The results shown in Table 2 below are mean averages over the two rates of fomesafen, the three replicates […].

[7] = test system: Chenopodium album (CHEAL); assay: as above; settings: fomesafen sodium salt SL, mean over 100 and 200 g/ha and 3 replicates; adjuvant 0.2% v/v (none in No Adjuvant rows); % leaf area killed, 21 days after application; Tests 1-4 separate runs
Experimental: as §1, with “fomesafen (as the sodium salt)” for “nicosulfuron”, “species,” for “species”, “light,” for “light;”, “Fomesafen sodium salt” for “Nicosulfuron”, “SL (soluble concentrate)” for “WG (water dispersible granule)”
as §3, §4

[8] = test system: Ipomea hederacea (IPOHE); assay: as above; settings: fomesafen sodium salt SL, mean over 100 and 200 g/ha and 3 replicates; adjuvant 0.2% v/v (none in No Adjuvant rows); % leaf area killed, 21 days after application; Tests 1-4 separate runs
Experimental: as §1, with “fomesafen (as the sodium salt)” for “nicosulfuron”, “species,” for “species”, “light,” for “light;”, “Fomesafen sodium salt” for “Nicosulfuron”, “SL (soluble concentrate)” for “WG (water dispersible granule)”
as §3, §4

[9] = test system: Setaria viridis (SETVI); assay: as above; settings: fomesafen sodium salt SL, mean over 100 and 200 g/ha and 3 replicates; adjuvant 0.2% v/v (none in No Adjuvant rows); % leaf area killed, 21 days after application; Tests 1-4 separate runs
Experimental: as §1, with “fomesafen (as the sodium salt)” for “nicosulfuron”, “species,” for “species”, “light,” for “light;”, “Fomesafen sodium salt” for “Nicosulfuron”, “SL (soluble concentrate)” for “WG (water dispersible granule)”
as §3, §4

[10] = test system: four weed species (ABUTH, CHEAL, IPOHE, SETVI); assay: Adjuvant efficacy with fomesafen, glasshouse spray test, average over all species; settings: fomesafen sodium salt SL, mean over 100 and 200 g/ha, adjuvant 0.2% v/v (none in No Adjuvant rows), 21 days, average of ABUTH
Experimental: as §1, with “fomesafen (as the sodium salt)” for “nicosulfuron”, “species,” for “species”, “light,” for “light;”, “Fomesafen sodium salt” for “Nicosulfuron”, “SL (soluble concentrate)” for “WG (water dispersible granule)”
as §3, §4

[11] = test system: Alopecurus myosuroides (ALOMY); assay: Adjuvant efficacy with pinoxaden, glasshouse spray test; settings: pinoxaden EC, mean over 7.5 and 15 g/ha and 3 replicates; adjuvant 0.2% v/v (none in No Adjuvant rows); % leaf area killed, 21 days after application; Tests 1-4 separate runs
Experimental: as §1, with “pinoxaden” for “nicosulfuron”, “species,” for “species”, “20/16°” for “24/18°”, “Pinoxaden” for “Nicosulfuron”, “EC (emulsifiable concentrate)” for “WG (water dispersible granule)”
(§5) The spray tests were also carried out using pinoxaden in conjunction with adjuvants 1-12. The adjuvants were added to the spray solution at a rate of 0.2% v/v unless otherwise stated. All spray solutions also contained 10% w/w of iso-Propanol. The weed species and their BBCH growth stage at spraying were Avena fatua (AVEFA; growth stage 12), Lolium perenne (LOLPE; growth stage 13), Alopecurus myosuroides (ALOMY; growth stage 13), and Setaria viridis (SETVI; growth stage 13-14). Each spray test was replicated three times. The test plants were then grown in a glasshouse under controlled conditions (at 20/16° C. day/night; 16 hours light; 65% humidity) and watered twice a day. The efficacy of the herbicide was assessed visually and expressed as a percentage of the leaf area killed. Samples were assessed at a time period of 21 days following application. The results shown in Table 4 below are mean averages over the two rates of pinoxaden, and the three replicates.

[12] = test system: Avena fatua (AVEFA); assay: as above; settings: pinoxaden EC, mean over 7.5 and 15 g/ha and 3 replicates; adjuvant 0.2% v/v (none in No Adjuvant rows); % leaf area killed, 21 days after application; Tests 1-4 separate runs
Experimental: as §1, with “pinoxaden” for “nicosulfuron”, “species,” for “species”, “20/16°” for “24/18°”, “Pinoxaden” for “Nicosulfuron”, “EC (emulsifiable concentrate)” for “WG (water dispersible granule)”
as §5

[13] = test system: Lolium perenne (LOLPE); assay: as above; settings: pinoxaden EC, mean over 7.5 and 15 g/ha and 3 replicates; adjuvant 0.2% v/v (none in No Adjuvant rows); % leaf area killed, 21 days after application; Tests 1-4 separate runs
Experimental: as §1, with “pinoxaden” for “nicosulfuron”, “species,” for “species”, “20/16°” for “24/18°”, “Pinoxaden” for “Nicosulfuron”, “EC (emulsifiable concentrate)” for “WG (water dispersible granule)”
as §5

[14] = test system: Setaria viridis (SETVI); assay: as above; settings: pinoxaden EC, mean over 7.5 and 15 g/ha and 3 replicates; adjuvant 0.2% v/v (none in No Adjuvant rows); % leaf area killed, 21 days after application; Tests 1-4 separate runs
Experimental: as §1, with “pinoxaden” for “nicosulfuron”, “species,” for “species”, “20/16°” for “24/18°”, “Pinoxaden” for “Nicosulfuron”, “EC (emulsifiable concentrate)” for “WG (water dispersible granule)”
as §5

Row | SMILES | Mean % Herbicidal Activity ABUTH [1] | Mean % Herbicidal Activity CHEAL [2] | Mean % Herbicidal Activity DIGSA [3] | Mean % Herbicidal Activity SETVI [4] | Mean % Herbicidal Activity Average over all Species [5] | Mean % Herbicidal Activity ABUTH [6] | Mean % Herbicidal Activity CHEAL [7] | Mean % Herbicidal Activity IPOHE [8] | Mean % Herbicidal Activity SETVI [9] | Mean % Herbicidal Activity Average over all Species [10] | Mean % Herbicidal Activity ALOMY [11] | Mean % Herbicidal Activity AVEFA [12] | Mean % Herbicidal Activity LOLPE [13] | Mean % Herbicidal Activity SETVI [14]
1 | CCCCCCCCCOc1cc(OCCOCCOCCOCCOCCOCCOCCOCCOCCOCCOC)ncn1 [Adjuvant 5] | 49% | 63% | 49% | 91% | 63% | 60% | 55% | 64% | 49% | 57% | 10% | 69% | 21% | 63%
2 | CCCCCCCCCCCCOc1cc(OCCOCCOCCOCCOCCOCCOCCOC)ncn1 [Adjuvant 6] | 38% | 83% | 74% | 91% | 71% | 31% | 80% | 64% | 25% | 50% | 23% | 82% | 62% | 87%
3 | CCCCCCCCCCCCOc1cc(OCCOCCOCCOCCOCCOCCOCCOCCOCCOCCOC)ncn1 [Adjuvant 7] | 59% | 86% | 84% | 96% | 81% | 46% | 94% | 98% | 45% | 71% | 63% | 98% | 78% | 97%
4 | CCCCCCCCCCCCCCCCOc1cc(OCCOCCOCCOCCOCCOCCOCCOCCOCCOCCOC)ncn1 [Adjuvant 8] | 53% and 66% and 74% | 85% (2×) and 83% | 87% and 93% and 89% | 96% (2×) and 95% | 80% and 85% and 86% | 53% and 75% and 36% | 78% and 65% and 73% | 92% and 97% and 51% | 17% and 65% and 13% | 60% and 75% and 43% | 2% and 15% and 22% | 94% and 78% and 84% | 87% and 42% and 73% | 94% and 88% and 89%
5 | CCCCCCCCC=CCCCCCCCCOc1cc(OCCOCCOC)ncn1 [Adjuvant 9] | 57% | 82% | 88% | 95% | 80% | 52% | 64% | 88% | 64% | 67% | 17% | 83% | 40% | 91%
